Laboratory results as given in patent publication US8058475B2, “Substituted cyclohexylmethyl compounds” (Gruenenthal GmbH, priority 2005, dated 2011).
Read-outs that look alike come from different tables or passages of the source.

Molecular target: human μ-opiate receptor (Homo sapiens, UniProt P35372)
Assay: Affinity for the human μ-opiate receptor ([3H]-naloxone displacement, SPA, CHO-K1 membrane preparation)
Format: binding
Details: for Ki: read-out: μ-Opioid receptor, Ki; for inhibition at 1 µM: read-out: μ-Opioid receptor, % inhibition [1 μM]
[1] = 1 μM test substance, inhibition of specific [3H]-naloxone binding

human μ-opiate receptor, sequence (P35372 whole entry): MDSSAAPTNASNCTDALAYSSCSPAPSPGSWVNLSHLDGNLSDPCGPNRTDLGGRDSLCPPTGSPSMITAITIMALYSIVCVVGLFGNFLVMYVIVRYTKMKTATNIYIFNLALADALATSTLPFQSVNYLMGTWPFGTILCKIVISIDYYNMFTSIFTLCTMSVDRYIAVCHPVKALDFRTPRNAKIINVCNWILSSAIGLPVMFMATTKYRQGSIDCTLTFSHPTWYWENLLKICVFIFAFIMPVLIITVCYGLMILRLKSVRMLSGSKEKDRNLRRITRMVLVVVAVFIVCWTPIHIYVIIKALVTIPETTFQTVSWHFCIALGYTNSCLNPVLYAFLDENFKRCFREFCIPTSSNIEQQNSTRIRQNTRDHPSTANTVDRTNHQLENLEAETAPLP

SMILES | μ-Opioid receptor, % inhibition [1 μM] [%] | Ki [nM] | inhibition at 1 µM [1] [%] | inhibition at 1 µM [%]
Cc1oc(-c2ccccc2)cc1C(=O)NCC1CCC(C(c2cccc(F)c2)N(C)C)CC1 (stereo not shown) [compound 373, 2-methyl-5-phenyl-furan-3-carboxylic acid {4-[dimethylamino-(3-fluoro-phenyl)-methyl]-cyclohexylmethyl}-amide] | 84 | 61 | – | –
Cc1ccccc1C1(O)CCC(C(c2ccc(Cl)cc2)N(C)C)CC1 (stereo not shown) [compound 161, 4-[(4-chloro-phenyl)-dimethylamino-methyl]-1-o-tolyl-cyclohexanol] | – | – | 60 | –
CCn1nc(C)c(Br)c1C(=O)NC1CCC(C(c2cccs2)N(C)C)CC1 (stereo not shown) [compound 260, 4-bromo-2-ethyl-5-methyl-2H-pyrazole-3-carboxylic acid [4-(dimethylamino-thiophen-2-yl-methyl)-cyclohexyl]-amide] | – | – | – | 78
CC(Oc1ccccc1)C(=O)NCC1CCC(C(c2cccc(F)c2)N(C)C)CC1 (single isomer, unassigned) [compound 332, N-{4-[dimethylamino-(3-fluoro-phenyl)-methyl]-cyclohexylmethyl}-2-phenoxy-propionamide] | – | 20 | – | 93
COc1cccc(C(=O)NC2CCC(C(c3cccs3)N(C)C)CC2)c1 (stereo not shown) [compound 199, N-[4-(dimethylamino-thiophen-2-yl-methyl)-cyclohexyl]-3-methoxy-benzamide] | – | 21 | – | 94
CN(C)C(c1ccccc1)C1CCC(CCNC(=O)c2ccc(F)cc2)CC1 (stereo not shown) [compound 407, N-{2-[4-(dimethylamino-phenyl-methyl)-cyclohexyl]-ethyl}-4-fluoro-benzamide] | – | 48 | – | 87
CN(C)C(c1ccc(Cl)cc1)C1CCC(O)(Cc2ccccc2)CC1 (stereo not shown) [compound 159, 1-benzyl-4-[(4-chloro-phenyl)-dimethylamino-methyl]-cyclohexanol] | – | – | 83 | –
CN(C)C(c1cccc(F)c1)C1CCC(CCNC(=O)c2cccc(Cl)c2)CC1 (single isomer, unassigned) [compound 401, 3-chloro-N-(2-{4-[dimethylamino-(3-fluoro-phenyl)-methyl]-cyclohexyl}-ethyl)-benzamide] | 97 | 11 | – | –
CN(C)C(c1ccccc1)C1CCC(NC(=O)c2cccc(Br)c2)CC1 (stereo not shown) [compound 197, 3-bromo-N-[4-(dimethylamino-phenyl-methyl)-cyclohexyl]-benzamide] | – | 16 | – | 96
CN(C)C(c1cccs1)C1CCC(CNC(=O)c2cccc(C#N)c2)CC1 (stereo not shown) [compound 347, 3-cyano-N-[4-(dimethylamino-thiophen-2-yl-methyl)-cyclohexylmethyl]-benzamide] | – | 26 | – | 90
CN(C)C(c1cccc(F)c1)C1CCC(NC(=O)c2c(F)cccc2F)CC1 (stereo not shown) [compound 278, N-{4-[dimethylamino-(3-fluoro-phenyl)-methyl]-cyclohexyl}-2,6-difluoro-benzamide] | – | 86 | – | 74
Cc1ccc(C(=O)NC2CCC(C(c3cccs3)N(C)C)CC2)cc1 (stereo not shown) [compound 198, N-[4-(dimethylamino-thiophen-2-yl-methyl)-cyclohexyl]-4-methyl-benzamide] | – | 15 | – | 95
CN(C)C(c1ccccc1)C1CCC(CNC(=O)CC(C)(C)C)CC1 (stereo not shown) [compound 298, N-[4-(dimethylamino-phenyl-methyl)-cyclohexylmethyl]-3,3-dimethyl-butyramide] | – | 4 | – | 100
CN(C)C(c1cccc(F)c1)C1CCC(CNC(=O)Cc2cccs2)CC1 (stereo not shown) [compound 343, N-{4-[dimethylamino-(3-fluoro-phenyl)-methyl]-cyclohexylmethyl}-2-thiophen-2-yl-acetamide] | – | – | – | 90
CC(=O)N(Cc1ccc(F)cc1)C1CCC(C(c2ccccc2)N(C)C)CC1 (stereo not shown) [compound 179, N-(4-((dimethylamino)(phenyl)methyl)cyclohexyl)-N-(4-fluorobenzyl)acetamide] | – | 3 | – | 99
Cc1oc(-c2ccccc2)cc1C(=O)NC1CCC(C(c2cccc(F)c2)N(C)C)CC1 (stereo not shown) [compound 266, 2-methyl-5-phenyl-furan-3-carboxylic acid {4-[dimethylamino-(3-fluoro-phenyl)-methyl]-cyclohexyl}-amide] | – | 36 | – | 78
CN(C)C(c1ccc(F)cc1)C1CCC(CNC(=O)C2(c3ccc(Cl)cc3)CCCC2)CC1 (stereo not shown) [compound 370, 1-(4-chloro-phenyl)-cyclopentane-carboxylic acid {4-[dimethylamino-(4-fluoro-phenyl)-methyl]-cyclohexylmethyl}-amide] | – | 81 | – | 84
CN(C)C(c1cccs1)C1CCC(CNC(=O)C(c2ccccc2)c2ccccc2)CC1 (stereo not shown) [compound 297, N-[4-(dimethylamino-thiophen-2-yl-methyl)-cyclohexylmethyl]-2,2-diphenyl-acetamide] | – | 4 | – | 100

SMILES | μ-Opioid receptor, % inhibition [1 μM] [%] | Ki [nM] | inhibition at 1 µM [1] [%] | inhibition at 1 µM [%]
CN(C)C(c1ccccc1)C1CCC(CCNC(=O)c2cccc(Cl)c2)CC1 (single isomer, unassigned) [compound 398, 3-chloro-N-{2-[4-(dimethylamino-phenyl-methyl)-cyclohexyl]-ethyl}-benzamide] | 101 | 7.4 | – | –
CN(C)C(c1ccccc1)C1CCC(CCNC(=O)c2cc3ccccc3s2)CC1 (stereo not shown) [compound 457, benzo[b]thiophene-2-carboxylic acid {2-[4-(dimethylamino-phenyl-methyl)-cyclohexyl]-ethyl}-amide] | – | 40 | – | 91
CN(C)C(c1ccccc1)C1CCC(CCNC(=O)c2ccc(Cl)cc2)CC1 (stereo not shown) [compound 405, 4-chloro-N-{2-[4-(dimethylamino-phenyl-methyl)-cyclohexyl]-ethyl}-benzamide] | – | 25 | – | 88
COc1c(C(=O)NC2CCC(C(c3ccc(F)cc3)N(C)C)CC2)csc1Cl (stereo not shown) [compound 211, 5-chloro-4-methoxy-thiophene-3-carboxylic acid {4-[dimethylamino-(4-fluoro-phenyl)-methyl]-cyclohexyl}-amide] | – | – | – | 92
CN(C)C(c1ccc(F)cc1)C1CCC(CCNC(=O)c2cccc(Br)c2)CC1 (stereo not shown) [compound 459, 3-bromo-N-(2-{4-[dimethylamino-(4-fluoro-phenyl)-methyl]-cyclohexyl}-ethyl)-benzamide] | – | 31 | – | 90
CN(C)C(c1ccccc1)C1CCC(NC(=O)c2csc(-c3ccc4c(c3)CCO4)n2)CC1 (stereo not shown) [compound 289, 2-(2,3-dihydro-benzofuran-5-yl)-thiazole-4-carboxylic acid [4-(dimethylamino-phenyl-methyl)-cyclohexyl]-amide] | – | 78 | – | 70
CN(C)C(c1ccccc1)C1CCC(NC(=O)c2ccc(C(C)(C)C)cc2)CC1 (stereo not shown) [compound 217, 4-tert-butyl-N-[4-(dimethylamino-phenyl-methyl)-cyclohexyl]-benzamide] | – | 62 | – | 90
Cc1oc(-c2ccc(Cl)cc2)cc1C(=O)NC1CCC(C(c2cccc(F)c2)N(C)C)CC1 (stereo not shown) [compound 285, 5-(4-chloro-phenyl)-2-methyl-furan-3-carboxylic acid {4-[dimethylamino-(3-fluoro-phenyl)-methyl]-cyclohexyl}-amide] | – | – | – | 71
CN(C)C(CCc1ccccc1)C1CCC(CNC(=O)c2csc3ccccc23)CC1 (stereo not shown) [compound 380, benzo[b]thiophene-3-carboxylic acid [4-(1-dimethylamino-3-phenyl-propyl)-cyclohexylmethyl]-amide] | – | 95 | – | 83
CN(C)C(c1ccccc1)C1CCC(CNC(=O)c2ccc(F)c(F)c2)CC1 (single isomer, unassigned) [compound 294, N-[4-(dimethylamino-phenyl-methyl)-cyclohexylmethyl]-3,4-difluoro-benzamide] | – | 8.3 | – | 101
CN(C)C(c1ccc(Cl)cc1)C1CCC(CNC(=O)c2csc3ccccc23)CC1 (single isomer, unassigned) [compound 336, benzo[b]thiophene-3-carboxylic acid {4-[(4-chloro-phenyl)-dimethylamino-methyl]-cyclohexylmethyl}-amide] | – | 39 | – | 92
CN(C)C(c1ccccc1)C1CCC(NC(=O)c2scc(S(C)(=O)=O)c2Cl)CC1 (stereo not shown) [compound 252, 3-chloro-4-methanesulfonyl-thiophene-2-carboxylic acid [4-(dimethylamino-phenyl-methyl)-cyclohexyl]-amide] | – | 20 | – | 81
CN(C)C(c1ccccc1)C1CCC(CNC(=O)c2ccc(Cl)cc2Cl)CC1 (stereo not shown) [compound 361, 2,4-dichloro-N-[4-(dimethylamino-phenyl-methyl)-cyclohexylmethyl]-benzamide] | – | 42 | – | 85
CN(C)C(c1ccccc1)C1CCC(NC(=O)c2cc(C(F)(F)F)ccc2F)CC1 (stereo not shown) [compound 205, N-[4-(dimethylamino-phenyl-methyl)-cyclohexyl]-2-fluoro-5-trifluoromethyl-benzamide] | – | 22 | – | 94
CN(C)C(CCc1ccccc1)C1CCC(NC(=O)c2ccc(F)cc2)CC1 (stereo not shown) [compound 258, N-[4-(1-dimethylamino-3-phenyl-propyl)-cyclohexyl]-4-fluoro-benzamide] | – | 68 | – | 79
CN(C)C(c1cccs1)C1CCC(CNC(=O)Cc2ccc(Cl)cc2)CC1 (stereo not shown) [compound 311, 2-(4-chloro-phenyl)-N-[4-(dimethylamino-thiophen-2-yl-methyl)-cyclohexyl-methyl]-acetamide] | – | 11 | – | 98
CN(C)C(c1ccccc1)C1CCC(CCNC(=O)c2cccnc2Sc2ccc(Cl)cc2)CC1 (single isomer, unassigned) [compound 471, 2-(4-chloro-phenylsulfanyl)-N-{2-[4-(dimethylamino-phenyl-methyl)-cyclohexyl]-ethyl}-nicotinamide] | 82 | 87 | – | –
